# Patent US9408391B2, “Fungicide composition comprising a tetrazolyloxime derivative and a thiazolylpiperidine derivative” (BAYER INTELLECTUAL PROPERTY GMBH, priority 2010, dated 2016)
# Where two headings read alike, the source gives them in different places.
# What was measured:
# [1] = system: Phytophthora infestans; assay type: in vivo; settings: tomato plants, preventive spray, evaluated 3 days after inoculation
# [2] = system: Venturia inaequalis; experiment: Venturia test (apples)/preventive; settings: apple plants, preventive spray, 100 ppm a.i., evaluated 10 days after inoculation
# Protocol: Venturia Test (Apples)/Preventive
# Solvent: 24,5 parts by weight of acetone • 24,5 parts by weight of dimethylacetamide
# Emulsifier: part by weight of alkylaryl polyglycol ether
# After the spray coating has dried on the plants are inoculated with an aqueous conidia suspension of the causal agent of apple scab (Venturia inaequalis) and then remain for 1 day in an incubation cabinet at approximately 20° C. and a relative atmospheric humidity of 100%.
# The plants are then placed in a greenhouse at approximately 21° C. and a relative atmospheric humidity of approximately 90%.
# The test is evaluated 10 days after the inoculation.
compound,measurement,setting,value
"Cc1cc(C(F)(F)F)nn1CC(=O)N1CCC(c2nc(C3=NOC(c4c(F)cccc4F)C3)cs2)CC1 (stereo not shown) [(B2), 1-(4-{4-[5-(2,6-difluorophenyl)-4,5-dihydro-1,2-oxazol-3-yl]-1,3-thiazol-2-yl}piperidin-1-yl)-2-[5-methyl-3-(trifluoromethyl)-1H-pyrazol-1-yl]ethanone]",Efficacy in % found,[1]; 0.01 ppm a.i.,30%
same,Efficacy in % found,[2],0%
Cn1nnnc1/C(=N\OCc1cccc(NC(=O)OC(C)(C)C)n1)c1ccccc1 [(A2)],Efficacy in % found,[1]; 1 ppm a.i.,46%
same,Efficacy in % found,[2],22%
